Earlier results as cited in US20200147064A1, “Reduction of Pro-Inflammatory HDL Using a Leukotriene Inhibitor” (Autoimmune Pharma LLC, priority 2017, published 2020).

Tested on: leukotriene production
Conditions: statement in words, cited from Stock, N S et al., J Med Chem. 2011

CCOc1ccc(-c2ccc(Cn3c(CC(C)(C)C(=O)O)c(SC(C)(C)C)c4cc(OCc5ccc(C)cn5)ccc43)cc2)cn1 [Compound 2-107, 3-[3-tert-butylsulfanyl-1-[4-(6-ethoxy-pyridin-3-yl)-benzyl]-5-(5-methyl-pyridin-2-ylmethoxy)-1H-indol-2-yl]-2,2-dimethyl-propionic acid]
inhibitor of leukotriene production in vivo: potent inhibitor of leukotriene production in vivo
